Source: patent US12441695B2, “Substituted thiadiazinone dioxide and preparation method therefor, herbicidal composition, and application therefor” (Qingdao Kingagroot Chemical Compound Co., Ltd., priority 2019, dated 2025)

Tests used:
[1] = tested on: monocotyledonous and dicotyledonous weeds; test: Experiment on weeding effect in post-emergence stage (weeds); format: in vivo; conditions: 600 g/ha active ingredient plus water 450 kg/ha, 3 weeks after application, fresh weight control rate; for Amaranthus retroflexus activity level (growth control rate): fomesafen-resistant Amaranthus retroflexus
From the text: The activity level criteria for plant damage (i.e., growth control rate) are as follows: • Level 5: growth control rate is above 85%; • Level 4: growth control rate is greater than or equal to 60% and less than 85%; • Level 3: growth control rate is greater than or equal to 40% and less than 60%; • Level 2: growth control rate is greater than or equal to 20% and less than 40%; • Level 1: growth control rate is greater than or equal to […]; • Level 0: growth control rate is less than 5%.
(§1) The above growth control rates are fresh weight control rates.
(§2) (1) Experiment on weeding effect in post-emergence stage: monocotyledonous and dicotyledonous weed seeds and major crop seeds (wheat, corn, rice, soybean, cotton, oilseed rape, millet, sorghum) were placed in plastic pots filled with soil, then covered with 0.5-2 cm of soil, allowed to grow in a good greenhouse environment. After 2-3 weeks of sowing, the test plants were treated. The tested compounds of the present invention were respectively dissolved in acetone, then added with Tween 80, diluted with a certain amount of water to obtain a solution with a certain concentration, and sprayed with a spray tower onto the plants. After the application, the plants were cultured for 3 weeks in the greenhouse, and then the experimental results of the weeding were listed in Table 2.

[2] = tested on: major crops (wheat, corn, rice, soybean, cotton, oilseed rape, millet, sorghum); test: Experiment on weeding effect in post-emergence stage (crops); format: in vivo; conditions: 600 g/ha active ingredient plus water 450 kg/ha, 3 weeks after application; for corn plant damage level (growth control rate): crop corn; for rice plant damage level (growth control rate): crop rice; for soybean plant damage level (growth control rate): crop soybean
Description: as §1
as §2, with “plants.” for “plants. After the application, the plants were cultured for 3 weeks in the greenhouse, and then the experimental results of the weeding were listed in Table 2.”

## CCOC(=O)OC(C)N1c2ccc(F)cc2C(=O)N(C(C)C)S1(=O)=O (centres unmarked) [Compound 64]
[1]
  Amaranthus retroflexus activity level (growth control rate): 5 (Level 5: growth control rate is above 85%)
  Digitaria sanguinalis activity level (growth control rate): 3 (Level 3: growth control rate is greater than or equal to 40% and less than 60%)
  Echinochloa crus-galli activity level (growth control rate): 4 (Level 4: growth control rate is greater than or equal to 60% and less than 85%)
  Setaria viridis activity level (growth control rate): 3 (Level 3: growth control rate is greater than or equal to 40% and less than 60%)
[2]
  corn plant damage level (growth control rate): 0 (Level 0: growth control rate is less than 5%)
  rice plant damage level (growth control rate): 0 (Level 0: growth control rate is less than 5%)
  soybean plant damage level (growth control rate): 0 (Level 0: growth control rate is less than 5%)

## CC(C)N1C(=O)c2cc(F)cc(Br)c2NS1(=O)=O [Compound 143]
[1]
  Amaranthus retroflexus activity level (growth control rate): 5 (Level 5: growth control rate is above 85%)
  Digitaria sanguinalis activity level (growth control rate): 5 (Level 5: growth control rate is above 85%)
  Echinochloa crus-galli activity level (growth control rate): 4 (Level 4: growth control rate is greater than or equal to 60% and less than 85%)
  Setaria viridis activity level (growth control rate): 5 (Level 5: growth control rate is above 85%)
[2]
  corn plant damage level (growth control rate): 1 (Level 1: growth control rate is greater than or equal to 500 and less than 200%)
  rice plant damage level (growth control rate): 0 (Level 0: growth control rate is less than 5%)
  soybean plant damage level (growth control rate): 1 (Level 1: growth control rate is greater than or equal to 500 and less than 200%)

## CC(C)N1C(=O)c2ccccc2NS1(=O)=O [G, reference compound]
[1]
  Amaranthus retroflexus activity level (growth control rate): 1 (Level 1: growth control rate is greater than or equal to 500 and less than 200%)
  Digitaria sanguinalis activity level (growth control rate): 0 (Level 0: growth control rate is less than 5%)
  Echinochloa crus-galli activity level (growth control rate): 0 (Level 0: growth control rate is less than 5%)
  Setaria viridis activity level (growth control rate): 1 (Level 1: growth control rate is greater than or equal to 500 and less than 200%)
[2]
  corn plant damage level (growth control rate): 0 (Level 0: growth control rate is less than 5%)
  rice plant damage level (growth control rate): 1 (Level 1: growth control rate is greater than or equal to 500 and less than 200%)
  soybean plant damage level (growth control rate): 1 (Level 1: growth control rate is greater than or equal to 500 and less than 200%)

## CC(C)N1C(=O)c2cc(F)cnc2NS1(=O)=O [Compound 75]
[1]
  Amaranthus retroflexus activity level (growth control rate): 4 (Level 4: growth control rate is greater than or equal to 60% and less than 85%)
  Echinochloa crus-galli activity level (growth control rate): 3 (Level 3: growth control rate is greater than or equal to 40% and less than 60%)
  Setaria viridis activity level (growth control rate): 3 (Level 3: growth control rate is greater than or equal to 40% and less than 60%)
[2]
  corn plant damage level (growth control rate): 1 (Level 1: growth control rate is greater than or equal to 500 and less than 200%)
  rice plant damage level (growth control rate): 1 (Level 1: growth control rate is greater than or equal to 500 and less than 200%)

## CC(C)N1C(=O)c2cc(F)cc(F)c2N(C(C)OC(=O)OC2CCCCC2)S1(=O)=O (racemic) [Compound 227]
[1]
  Amaranthus retroflexus activity level (growth control rate): 3 (Level 3: growth control rate is greater than or equal to 40% and less than 60%)
[2]
  corn plant damage level (growth control rate): 0 (Level 0: growth control rate is less than 5%)
  rice plant damage level (growth control rate): 1 (Level 1: growth control rate is greater than or equal to 500 and less than 200%)
  soybean plant damage level (growth control rate): 1 (Level 1: growth control rate is greater than or equal to 500 and less than 200%)

## CC(C)C(=O)N1c2c(F)cc(F)cc2C(=O)N(C(C)C)S1(=O)=O [Compound 215]
[1]
  Amaranthus retroflexus activity level (growth control rate): 5 (Level 5: growth control rate is above 85%)
  Digitaria sanguinalis activity level (growth control rate): 5 (Level 5: growth control rate is above 85%)
  Echinochloa crus-galli activity level (growth control rate): 5 (Level 5: growth control rate is above 85%)
  Setaria viridis activity level (growth control rate): 5 (Level 5: growth control rate is above 85%)
[2]
  corn plant damage level (growth control rate): 1 (Level 1: growth control rate is greater than or equal to 500 and less than 200%)

## CC(C)N1C(=O)c2cccnc2NS1(=O)=O [F, reference compound]
[1]
  Amaranthus retroflexus activity level (growth control rate): 2 (Level 2: growth control rate is greater than or equal to 20% and less than 40%)
  Digitaria sanguinalis activity level (growth control rate): 2 (Level 2: growth control rate is greater than or equal to 20% and less than 40%)
  Echinochloa crus-galli activity level (growth control rate): 2 (Level 2: growth control rate is greater than or equal to 20% and less than 40%)
  Setaria viridis activity level (growth control rate): 2 (Level 2: growth control rate is greater than or equal to 20% and less than 40%)
[2]
  corn plant damage level (growth control rate): 1 (Level 1: growth control rate is greater than or equal to 500 and less than 200%)
  rice plant damage level (growth control rate): 1 (Level 1: growth control rate is greater than or equal to 500 and less than 200%)
  soybean plant damage level (growth control rate): 1 (Level 1: growth control rate is greater than or equal to 500 and less than 200%)

## CC(C)N1C(=O)c2cc(F)c(Cl)cc2NS1(=O)=O [Compound 147]
[1]
  Amaranthus retroflexus activity level (growth control rate): 3 (Level 3: growth control rate is greater than or equal to 40% and less than 60%)
[2]
  corn plant damage level (growth control rate): 0 (Level 0: growth control rate is less than 5%)
  rice plant damage level (growth control rate): 0 (Level 0: growth control rate is less than 5%)

## CC(C)N1C(=O)c2cc(I)ccc2NS1(=O)=O [C, reference compound]
[1]
  Amaranthus retroflexus activity level (growth control rate): 0 (Level 0: growth control rate is less than 5%)
  Digitaria sanguinalis activity level (growth control rate): 0 (Level 0: growth control rate is less than 5%)
  Echinochloa crus-galli activity level (growth control rate): 0 (Level 0: growth control rate is less than 5%)
  Setaria viridis activity level (growth control rate): 0 (Level 0: growth control rate is less than 5%)
[2]
  corn plant damage level (growth control rate): 0 (Level 0: growth control rate is less than 5%)
  rice plant damage level (growth control rate): 0 (Level 0: growth control rate is less than 5%)
  soybean plant damage level (growth control rate): 0 (Level 0: growth control rate is less than 5%)

## COc1ccc(CN2c3ccc(F)cc3C(=O)N(C(C)C)S2(=O)=O)cc1 [Compound 197]
[1]
  Amaranthus retroflexus activity level (growth control rate): 3 (Level 3: growth control rate is greater than or equal to 40% and less than 60%)
[2]
  corn plant damage level (growth control rate): 0 (Level 0: growth control rate is less than 5%)
  rice plant damage level (growth control rate): 0 (Level 0: growth control rate is less than 5%)
  soybean plant damage level (growth control rate): 0 (Level 0: growth control rate is less than 5%)

## C#CCN1c2ccc(F)cc2C(=O)N(C(C)C)S1(=O)=O [Compound 51]
[1]
  Amaranthus retroflexus activity level (growth control rate): 5 (Level 5: growth control rate is above 85%)
  Echinochloa crus-galli activity level (growth control rate): 3 (Level 3: growth control rate is greater than or equal to 40% and less than 60%)
  Setaria viridis activity level (growth control rate): 3 (Level 3: growth control rate is greater than or equal to 40% and less than 60%)
[2]
  corn plant damage level (growth control rate): 0 (Level 0: growth control rate is less than 5%)
  rice plant damage level (growth control rate): 0 (Level 0: growth control rate is less than 5%)
  soybean plant damage level (growth control rate): 0 (Level 0: growth control rate is less than 5%)
